In ChEMBL document CHEMBL3991601, “The target landscape of clinical kinase drugs” (Science, 2017) one finds Kd data, which are given here for eleven compounds.

The target in experiment [1] is T1, Very long-chain specific acyl-CoA dehydrogenase, mitochondrial (Homo sapiens, UniProt P49748).
T1 sequence (P49748 whole entry): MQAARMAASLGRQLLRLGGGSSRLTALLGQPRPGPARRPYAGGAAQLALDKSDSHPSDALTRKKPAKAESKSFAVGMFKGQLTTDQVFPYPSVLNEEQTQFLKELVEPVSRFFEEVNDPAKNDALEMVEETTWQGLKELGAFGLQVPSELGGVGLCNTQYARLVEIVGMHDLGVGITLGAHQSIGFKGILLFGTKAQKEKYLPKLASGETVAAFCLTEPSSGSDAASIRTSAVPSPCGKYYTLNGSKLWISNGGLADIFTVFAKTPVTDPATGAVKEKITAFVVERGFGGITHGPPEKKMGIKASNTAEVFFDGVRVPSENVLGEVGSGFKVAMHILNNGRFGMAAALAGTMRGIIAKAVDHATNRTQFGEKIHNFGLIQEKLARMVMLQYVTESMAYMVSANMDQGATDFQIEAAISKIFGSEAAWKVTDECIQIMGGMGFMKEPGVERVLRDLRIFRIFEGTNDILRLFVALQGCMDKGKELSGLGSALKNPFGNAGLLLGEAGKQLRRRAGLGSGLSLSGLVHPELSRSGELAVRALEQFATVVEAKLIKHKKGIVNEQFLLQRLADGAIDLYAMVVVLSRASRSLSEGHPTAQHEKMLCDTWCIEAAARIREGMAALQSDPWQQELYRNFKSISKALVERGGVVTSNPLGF

Experiment [2] deals with T2, ATP-dependent RNA helicase DDX1 (Homo sapiens, UniProt Q92499).
T2 sequence (Q92499 whole entry): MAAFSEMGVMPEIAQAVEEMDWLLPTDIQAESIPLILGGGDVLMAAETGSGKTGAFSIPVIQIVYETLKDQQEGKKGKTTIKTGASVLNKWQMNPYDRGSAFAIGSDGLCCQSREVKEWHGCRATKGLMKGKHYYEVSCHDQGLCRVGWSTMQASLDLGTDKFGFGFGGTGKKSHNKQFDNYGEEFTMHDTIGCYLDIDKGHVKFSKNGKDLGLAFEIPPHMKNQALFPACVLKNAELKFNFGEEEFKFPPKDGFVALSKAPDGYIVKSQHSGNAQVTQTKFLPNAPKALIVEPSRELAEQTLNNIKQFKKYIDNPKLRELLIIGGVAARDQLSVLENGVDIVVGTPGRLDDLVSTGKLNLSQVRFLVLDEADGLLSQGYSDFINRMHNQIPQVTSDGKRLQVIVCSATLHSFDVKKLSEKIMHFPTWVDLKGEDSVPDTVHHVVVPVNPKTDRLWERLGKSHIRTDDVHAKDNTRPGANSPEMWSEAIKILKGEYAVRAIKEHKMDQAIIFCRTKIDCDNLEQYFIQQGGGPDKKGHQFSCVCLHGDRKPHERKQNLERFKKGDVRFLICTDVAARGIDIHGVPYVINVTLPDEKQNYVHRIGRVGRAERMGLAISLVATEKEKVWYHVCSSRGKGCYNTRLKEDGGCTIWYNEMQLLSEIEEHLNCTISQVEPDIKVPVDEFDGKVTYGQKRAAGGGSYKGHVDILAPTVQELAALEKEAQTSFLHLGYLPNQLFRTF

The target of experiment [3] is DnaJ homolog subfamily A member 1 (Homo sapiens, UniProt P31689).
In experiment [4] the target is Mitogen-activated protein kinase kinase kinase kinase 1 (Homo sapiens, UniProt Q92918).
The target of experiment [5] is T3, Mitogen-activated protein kinase kinase kinase kinase 2 (Homo sapiens, UniProt Q12851).
T3 sequence (Q12851 whole entry): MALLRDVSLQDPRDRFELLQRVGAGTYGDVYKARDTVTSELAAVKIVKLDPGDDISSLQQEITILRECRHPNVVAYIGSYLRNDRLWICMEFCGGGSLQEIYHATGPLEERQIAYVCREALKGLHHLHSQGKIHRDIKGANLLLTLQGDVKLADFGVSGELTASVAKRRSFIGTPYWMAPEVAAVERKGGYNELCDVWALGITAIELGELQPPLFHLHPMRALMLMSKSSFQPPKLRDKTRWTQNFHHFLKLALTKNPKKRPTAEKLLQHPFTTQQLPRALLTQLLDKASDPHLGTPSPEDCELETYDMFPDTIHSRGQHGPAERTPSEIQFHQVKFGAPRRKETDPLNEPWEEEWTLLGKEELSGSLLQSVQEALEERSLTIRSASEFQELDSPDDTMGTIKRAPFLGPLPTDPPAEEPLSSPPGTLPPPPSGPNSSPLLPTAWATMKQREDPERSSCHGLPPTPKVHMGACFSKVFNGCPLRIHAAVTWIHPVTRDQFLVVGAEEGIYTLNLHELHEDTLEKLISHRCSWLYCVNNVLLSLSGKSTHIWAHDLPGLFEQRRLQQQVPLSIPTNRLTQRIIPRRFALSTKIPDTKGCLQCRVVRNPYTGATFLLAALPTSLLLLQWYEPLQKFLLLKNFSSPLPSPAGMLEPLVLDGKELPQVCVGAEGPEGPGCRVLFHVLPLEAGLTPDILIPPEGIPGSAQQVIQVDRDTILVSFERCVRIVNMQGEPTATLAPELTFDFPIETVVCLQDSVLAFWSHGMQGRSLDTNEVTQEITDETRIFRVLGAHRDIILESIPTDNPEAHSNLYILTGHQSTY

The target of experiment [6] is Mitogen-activated protein kinase 7 (Homo sapiens, UniProt Q13164).
Experiment [7] concerns the target T4, MAP kinase-activated protein kinase 5 (Homo sapiens, UniProt Q8IW41).
T4 sequence (Q8IW41 whole entry): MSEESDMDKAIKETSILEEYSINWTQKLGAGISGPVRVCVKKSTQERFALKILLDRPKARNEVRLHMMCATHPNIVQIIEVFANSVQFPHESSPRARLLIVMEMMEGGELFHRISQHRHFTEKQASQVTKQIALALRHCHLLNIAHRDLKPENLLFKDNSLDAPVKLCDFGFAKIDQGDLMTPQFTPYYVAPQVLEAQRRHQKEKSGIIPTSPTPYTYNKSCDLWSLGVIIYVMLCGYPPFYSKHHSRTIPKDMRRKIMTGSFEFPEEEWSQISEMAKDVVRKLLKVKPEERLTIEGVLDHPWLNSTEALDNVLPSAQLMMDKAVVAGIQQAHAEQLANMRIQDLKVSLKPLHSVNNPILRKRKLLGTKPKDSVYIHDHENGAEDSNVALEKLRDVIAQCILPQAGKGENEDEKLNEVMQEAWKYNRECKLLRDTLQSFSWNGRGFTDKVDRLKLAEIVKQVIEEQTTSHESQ

Experiment [8] concerns the target Ribosomal protein S6 kinase alpha-1 (Homo sapiens, UniProt Q15418).
Experiment [9] concerns the target U5 small nuclear ribonucleoprotein 200 kDa helicase (Homo sapiens, UniProt O75643).

Each structure is given as a SMILES string. Active and inactive are the calls of the source.
Also: in the data inactive means no Kd found up to 30 µM.

DnaJ homolog subfamily A member 1, sequence (P31689 whole entry): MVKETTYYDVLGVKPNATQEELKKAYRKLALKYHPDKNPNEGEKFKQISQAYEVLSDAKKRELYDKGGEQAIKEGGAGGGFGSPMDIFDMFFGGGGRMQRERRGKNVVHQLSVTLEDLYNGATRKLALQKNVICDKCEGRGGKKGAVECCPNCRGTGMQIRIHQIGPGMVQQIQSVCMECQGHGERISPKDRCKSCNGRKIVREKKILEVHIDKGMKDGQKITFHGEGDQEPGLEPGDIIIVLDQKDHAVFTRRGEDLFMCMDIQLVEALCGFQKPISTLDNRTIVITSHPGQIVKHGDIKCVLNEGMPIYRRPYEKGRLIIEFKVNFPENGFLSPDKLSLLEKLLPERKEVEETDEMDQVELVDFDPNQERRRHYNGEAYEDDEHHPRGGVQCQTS
Ribosomal protein S6 kinase alpha-1, sequence (Q15418 whole entry): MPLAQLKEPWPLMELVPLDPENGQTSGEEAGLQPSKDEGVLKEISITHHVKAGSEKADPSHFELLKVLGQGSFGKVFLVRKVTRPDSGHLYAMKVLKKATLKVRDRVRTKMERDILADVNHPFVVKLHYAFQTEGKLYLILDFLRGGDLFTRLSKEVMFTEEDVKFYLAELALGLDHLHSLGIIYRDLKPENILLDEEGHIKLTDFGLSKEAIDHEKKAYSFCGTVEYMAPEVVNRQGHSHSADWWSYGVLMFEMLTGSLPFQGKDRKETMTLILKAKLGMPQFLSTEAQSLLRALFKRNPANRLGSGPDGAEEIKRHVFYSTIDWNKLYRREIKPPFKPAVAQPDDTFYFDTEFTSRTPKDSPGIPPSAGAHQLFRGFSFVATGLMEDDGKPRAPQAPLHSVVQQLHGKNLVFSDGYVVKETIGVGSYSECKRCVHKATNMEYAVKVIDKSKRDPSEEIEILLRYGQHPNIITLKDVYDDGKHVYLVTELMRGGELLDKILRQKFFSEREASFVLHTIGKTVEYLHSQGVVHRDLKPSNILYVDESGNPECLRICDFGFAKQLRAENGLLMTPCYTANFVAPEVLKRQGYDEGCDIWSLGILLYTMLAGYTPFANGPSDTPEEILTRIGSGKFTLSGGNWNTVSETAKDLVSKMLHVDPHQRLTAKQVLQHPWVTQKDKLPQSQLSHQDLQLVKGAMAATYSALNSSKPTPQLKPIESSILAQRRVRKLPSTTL
Mitogen-activated protein kinase 7, sequence (Q13164 whole entry): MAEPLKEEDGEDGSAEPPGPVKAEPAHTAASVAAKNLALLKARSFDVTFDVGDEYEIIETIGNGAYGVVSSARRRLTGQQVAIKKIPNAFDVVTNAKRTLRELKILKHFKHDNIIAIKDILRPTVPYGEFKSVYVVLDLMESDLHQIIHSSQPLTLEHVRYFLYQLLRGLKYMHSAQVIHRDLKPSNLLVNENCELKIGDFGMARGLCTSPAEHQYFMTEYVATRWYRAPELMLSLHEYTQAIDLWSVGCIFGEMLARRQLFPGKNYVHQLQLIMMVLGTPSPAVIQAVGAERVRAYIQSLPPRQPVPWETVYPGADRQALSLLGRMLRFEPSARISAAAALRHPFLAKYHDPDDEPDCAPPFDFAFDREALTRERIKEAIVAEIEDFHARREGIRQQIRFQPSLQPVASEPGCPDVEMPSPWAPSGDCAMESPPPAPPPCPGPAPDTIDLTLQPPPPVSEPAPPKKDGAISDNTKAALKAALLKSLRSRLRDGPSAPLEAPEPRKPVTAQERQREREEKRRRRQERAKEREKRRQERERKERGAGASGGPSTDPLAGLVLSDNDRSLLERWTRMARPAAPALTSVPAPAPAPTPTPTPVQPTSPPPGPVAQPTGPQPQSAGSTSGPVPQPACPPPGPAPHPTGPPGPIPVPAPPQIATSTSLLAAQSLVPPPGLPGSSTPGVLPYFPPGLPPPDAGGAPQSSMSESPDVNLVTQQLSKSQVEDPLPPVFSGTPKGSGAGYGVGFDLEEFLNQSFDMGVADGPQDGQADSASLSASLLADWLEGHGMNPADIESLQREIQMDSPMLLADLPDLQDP
Mitogen-activated protein kinase kinase kinase kinase 1, sequence (Q92918 whole entry): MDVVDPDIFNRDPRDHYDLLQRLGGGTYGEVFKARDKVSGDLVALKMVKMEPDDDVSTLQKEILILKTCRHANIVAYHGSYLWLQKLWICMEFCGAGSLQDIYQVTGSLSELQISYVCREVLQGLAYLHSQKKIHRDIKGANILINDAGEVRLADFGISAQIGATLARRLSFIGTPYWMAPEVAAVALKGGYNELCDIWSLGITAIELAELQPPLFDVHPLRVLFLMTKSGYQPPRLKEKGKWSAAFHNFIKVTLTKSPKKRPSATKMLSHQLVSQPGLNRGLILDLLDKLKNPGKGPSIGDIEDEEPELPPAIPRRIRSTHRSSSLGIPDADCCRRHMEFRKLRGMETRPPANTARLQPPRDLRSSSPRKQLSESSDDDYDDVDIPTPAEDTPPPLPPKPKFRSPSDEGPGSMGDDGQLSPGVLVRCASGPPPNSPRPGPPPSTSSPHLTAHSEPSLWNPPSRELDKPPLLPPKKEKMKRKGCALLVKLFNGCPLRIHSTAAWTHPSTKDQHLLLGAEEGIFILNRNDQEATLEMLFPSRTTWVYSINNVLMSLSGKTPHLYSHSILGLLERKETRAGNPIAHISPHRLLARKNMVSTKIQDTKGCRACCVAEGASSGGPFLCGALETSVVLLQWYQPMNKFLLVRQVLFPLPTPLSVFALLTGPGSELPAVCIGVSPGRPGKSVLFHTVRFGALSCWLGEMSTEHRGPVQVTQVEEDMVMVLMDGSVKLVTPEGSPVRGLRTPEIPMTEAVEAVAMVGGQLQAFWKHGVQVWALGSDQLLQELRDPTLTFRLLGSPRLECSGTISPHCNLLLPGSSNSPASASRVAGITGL
U5 small nuclear ribonucleoprotein 200 kDa helicase, sequence (O75643 whole entry): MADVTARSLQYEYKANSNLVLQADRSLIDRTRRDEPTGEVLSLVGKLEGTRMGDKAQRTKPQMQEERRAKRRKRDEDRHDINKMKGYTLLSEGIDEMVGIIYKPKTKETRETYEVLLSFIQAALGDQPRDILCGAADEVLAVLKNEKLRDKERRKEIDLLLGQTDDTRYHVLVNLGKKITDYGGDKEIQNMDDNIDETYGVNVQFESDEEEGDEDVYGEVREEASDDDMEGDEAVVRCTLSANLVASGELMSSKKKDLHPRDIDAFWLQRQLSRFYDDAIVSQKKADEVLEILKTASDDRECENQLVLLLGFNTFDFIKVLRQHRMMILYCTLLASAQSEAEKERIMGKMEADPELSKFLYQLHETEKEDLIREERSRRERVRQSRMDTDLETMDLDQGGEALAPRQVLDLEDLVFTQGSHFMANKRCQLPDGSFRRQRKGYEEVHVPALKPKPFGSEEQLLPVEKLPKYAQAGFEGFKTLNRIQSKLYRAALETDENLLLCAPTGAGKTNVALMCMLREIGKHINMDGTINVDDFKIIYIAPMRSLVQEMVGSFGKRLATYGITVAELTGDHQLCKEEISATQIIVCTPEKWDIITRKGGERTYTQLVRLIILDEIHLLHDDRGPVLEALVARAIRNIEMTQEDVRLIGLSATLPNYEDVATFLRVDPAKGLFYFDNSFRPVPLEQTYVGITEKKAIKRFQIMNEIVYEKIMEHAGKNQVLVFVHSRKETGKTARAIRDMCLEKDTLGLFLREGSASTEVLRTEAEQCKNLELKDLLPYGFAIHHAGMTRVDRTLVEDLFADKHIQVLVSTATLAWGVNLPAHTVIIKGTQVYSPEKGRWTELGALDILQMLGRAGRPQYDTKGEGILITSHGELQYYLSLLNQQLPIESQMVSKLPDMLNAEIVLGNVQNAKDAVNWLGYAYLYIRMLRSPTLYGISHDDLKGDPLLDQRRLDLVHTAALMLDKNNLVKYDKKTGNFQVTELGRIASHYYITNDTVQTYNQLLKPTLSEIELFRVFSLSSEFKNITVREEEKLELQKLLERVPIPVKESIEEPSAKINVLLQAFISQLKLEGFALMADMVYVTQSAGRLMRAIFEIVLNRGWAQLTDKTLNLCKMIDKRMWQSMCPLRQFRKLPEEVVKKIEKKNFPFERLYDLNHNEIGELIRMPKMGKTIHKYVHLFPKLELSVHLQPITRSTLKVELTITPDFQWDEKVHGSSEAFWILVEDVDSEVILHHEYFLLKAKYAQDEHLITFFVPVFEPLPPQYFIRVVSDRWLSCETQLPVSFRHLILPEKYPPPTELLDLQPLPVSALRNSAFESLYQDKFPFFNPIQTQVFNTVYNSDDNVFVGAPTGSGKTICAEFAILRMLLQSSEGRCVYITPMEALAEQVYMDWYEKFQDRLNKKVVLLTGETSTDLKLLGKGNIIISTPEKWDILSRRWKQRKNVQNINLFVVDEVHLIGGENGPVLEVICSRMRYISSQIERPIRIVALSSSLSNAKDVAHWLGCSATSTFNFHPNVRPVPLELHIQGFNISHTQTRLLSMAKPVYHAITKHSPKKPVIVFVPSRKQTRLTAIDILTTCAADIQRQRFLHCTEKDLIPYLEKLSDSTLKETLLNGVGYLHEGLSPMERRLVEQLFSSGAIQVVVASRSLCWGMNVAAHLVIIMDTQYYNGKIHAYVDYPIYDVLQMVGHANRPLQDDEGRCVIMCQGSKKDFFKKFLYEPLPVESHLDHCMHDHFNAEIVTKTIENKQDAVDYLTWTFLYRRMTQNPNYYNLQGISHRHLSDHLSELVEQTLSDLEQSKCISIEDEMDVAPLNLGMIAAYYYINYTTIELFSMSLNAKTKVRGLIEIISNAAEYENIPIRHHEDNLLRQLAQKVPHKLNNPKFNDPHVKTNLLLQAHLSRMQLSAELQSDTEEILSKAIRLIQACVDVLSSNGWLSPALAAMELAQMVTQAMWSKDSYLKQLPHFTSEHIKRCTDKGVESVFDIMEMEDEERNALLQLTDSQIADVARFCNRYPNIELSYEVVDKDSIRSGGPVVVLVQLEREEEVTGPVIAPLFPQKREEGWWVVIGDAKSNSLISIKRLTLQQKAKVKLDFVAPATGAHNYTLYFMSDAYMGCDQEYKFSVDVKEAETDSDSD

Turning to `C=CC(=O)Nc1cc(Nc2nccc(-c3cn(C)c4ccccc34)n2)c(OC)cc1N(C)CCN(C)C` [OSIMERTINIB], the Kd in [1], in experiment [2], in experiment [3], in experiment [4], in experiment [5] and in experiment [6] was > 30 µM (inactive) throughout. Moreover, the Kd in [7], in experiment [8] and in [9] was > 30 µM (inactive) in each case.

Regarding `Cn1cc(-c2[nH]c3cc(NC(=O)[C@H](N)C4CCCCC4)cc4c3c2C=NNC4=O)cn1`, the Kd in [1], in experiment [2], in experiment [3], in experiment [4], in experiment [5] and in experiment [6] was > 30 µM (inactive) each time. Further, the Kd in experiment [7] is > 30 µM (inactive); in experiment [8] it was 5.2 µM; in experiment [9] it was > 30 µM (inactive).

Turning to `COCCN1CCN(Cc2ccc(-c3n[nH]c4c3C(=O)c3c(NC(=O)NN5CCOCC5)cccc3-4)cc2)CC1` [RGB-286638], the Kd in [1], in experiment [2], in [3], in experiment [4], in experiment [5] and in experiment [6] was > 30 µM (inactive) in each case. Further, the Kd in experiment [7], in experiment [8] and in [9] was > 30 µM (inactive) throughout.

For `C[C@@H]1COC(Nc2ccc3ncnc(Nc4ccc(OCc5nccs5)c(Cl)c4)c3c2)=N1` [VARLITINIB], the Kd in experiment [1], in [2], in [3], in experiment [4], in experiment [5] and in [6] was > 30 µM (inactive) throughout. The Kd in experiment [7], in [8] and in experiment [9] was > 30 µM (inactive) throughout.

Turning to `O=C(NC[C@H](O)CO)c1ccncc1Nc1ccc(I)cc1F` [PIMASERTIB], the Kd in experiment [1], in [2], in [3], in experiment [4], in experiment [5] and in experiment [6] was > 30 µM (inactive) throughout. In addition, the Kd in [7], in experiment [8] and in [9] was > 30 µM (inactive) in each case.

On to `CCc1cc2c(cc1N1CCC(N3CCOCC3)CC1)C(C)(C)c1[nH]c3cc(C#N)ccc3c1C2=O` [ALECTINIB], for which the Kd in [1], in experiment [2], in experiment [3], in experiment [4], in [5] and in [6] was > 30 µM (inactive) each time. Further, the Kd in [7], in [8] and in [9] was > 30 µM (inactive) in each case.

`Cc1c(NC(=O)OC[C@@H]2COCCN2)cn2ncnc(Nc3ccc4c(cnn4Cc4cccc(F)c4)c3)c12` [AC-480]: the Kd in experiment [1], in experiment [2], in experiment [3], in experiment [4], in experiment [5] and in [6] was > 30 µM (inactive) in each case. Besides, the Kd in experiment [7], in experiment [8] and in [9] was > 30 µM (inactive) in each case.

On to `COc1cc(Nc2ncc(F)c(Nc3ccc4c(n3)N(COP(=O)(O)O)C(=O)C(C)(C)O4)n2)cc(OC)c1OC` [FOSTAMATINIB], for which the Kd in experiment [1], in experiment [2], in [3], in [4], in experiment [5] and in [6] was > 30 µM (inactive) each time. Moreover, the Kd in experiment [7], in experiment [8] and in [9] was > 30 µM (inactive) each time.

For the compound `CN1CCN(c2nc(C3=C(c4c[nH]c5ccccc45)C(=O)NC3=O)c3ccccc3n2)CC1` [SOTRASTAURIN], the Kd in experiment [1], in [2], in [3], in experiment [4], in experiment [5] and in experiment [6] was > 30 µM (inactive) throughout. Besides, the Kd in experiment [7], in experiment [8] and in [9] was > 30 µM (inactive) throughout.

Turning to `CC(C)CC(=O)Nc1[nH]nc2c1CN(C(=O)C1CCN(C)CC1)C2(C)C` [PHA-793887], the Kd in [1], in experiment [2], in experiment [3], in experiment [4], in [5] and in experiment [6] was > 30 µM (inactive) throughout. For the same compound, the Kd in experiment [7], in experiment [8] and in experiment [9] was > 30 µM (inactive) in each case.

Consider `COc1cccc2cc(-c3nc([C@H]4CC[C@H](C(=O)O)CC4)n4ncnc(N)c34)[nH]c12` [OSI-027], for which the Kd in [1], in experiment [2], in experiment [3], in experiment [4], in experiment [5] and in experiment [6] was > 30 µM (inactive) in each case. In addition, the Kd in experiment [7], in experiment [8] and in [9] was > 30 µM (inactive) in each case.
